Experimental data as given in patent US8119656B2, “Inhibitors of the influenza virus non-structural 1 protein” (The Board of Regents of the University of Texas System, priority 2007, dated 2012).

Tests used:
[1] = target: T1, NS1 protein (Influenza A virus, UniProt P03496); assay type: cell-based
T1 construct: expressed in transfected cells; host or cells: 293T cells

[2] = system: influenza virus; assay: Inhibition of virus killing in human bronchial epithelial cells (infection assay); assay type: cell-based; details: purity and concentration verified
Source text: FIG. 7. […] Analogs in the library are related structures which provide structure-activity information. The z score is the compound value minus the experimental mean value divided by the standard deviation of the experimental population.
It is important to note, that with the exception of one compound (8 in FIG. 7), the values shown are from the screening experiments using compounds for which only estimated concentrations and solubilities were available. Inhibitor 8 has been purchased in large quantities from Chemical Diversity Laboratories (San Diego, Calif.) and its purity and concentration verified prior to obtaining the data on inhibition of virus killing in human bronchial epithelial cells. […] It is possible that some of the other compounds will show improvements in potency once pure stocks of known concentration are obtained (see FIG. 7). […] From these 71 inhibitors, 8 different compound families were chosen for further analyses (see FIG. 7).

[3] = system: influenza virus (WSN); assay type: cell-based
[4] = system: firefly luciferase; assay type: cell-based
[5] = system: mRNA export block induced by influenza virus infection and mediated by NS1; assay type: cell-based, influenza virus (WSN)
[6] = system: Renilla luciferase

T1 sequence (P03496 whole entry): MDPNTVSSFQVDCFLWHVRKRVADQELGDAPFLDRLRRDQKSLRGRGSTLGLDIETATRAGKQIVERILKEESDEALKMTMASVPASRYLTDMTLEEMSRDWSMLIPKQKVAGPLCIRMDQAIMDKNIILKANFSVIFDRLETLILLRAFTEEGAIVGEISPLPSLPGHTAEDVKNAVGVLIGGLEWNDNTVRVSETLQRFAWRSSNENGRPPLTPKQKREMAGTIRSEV

SMILES	WSN HA titer 24H 24 hr [3]	WSN HA titer 24H 36 hr [3]	further results
O=C(O)CCCN1C(=O)c2cccc3c([N+](=O)[O-])ccc(c23)C1=O [Compound 8.0]	0.50	0.50	Activity in the original screen [1]: not one of the most active compounds; Potency in the infection assay [2]: most potent in the infection assay
O=C(O)CCCCCN1C(=O)c2cccc3cccc(c23)C1=O [Compound 8.1]	1.00	0.50	
O=C(O)CCN1C(=O)c2cccc3c([N+](=O)[O-])ccc(c23)C1=O [Compound 8.2]	0.25	0.50	
O=C(O)CCCCCN1C(=O)c2cccc3c(N4CCCCC4)ccc(c23)C1=O [Compound 8.3]	0.13	0.13	Inhibition of NS1 protein compared with compound 8 [1]: more inhibitory of NS1 protein; Score in the luciferase dependent assay [1]: did not score; Inhibition of firefly luciferase expression [4]: inhibitor of firefly luciferase expression; Reversal of mRNA export block ([5]; MDCK cells infected with WSN, FIG. 10 (10 μM, MOI 0.01, 48 h in FIG. 10A)): significantly reverts the mRNA export block; Reversal of mRNA export blockage ([5]; compound at 50 μM, WSN MOI 1, 12 h (FIG. 10B)): significant reversal of mRNA export blockage; Inhibition of Renilla luciferase expression [6]: no effect; Inhibition of virus growth compared with compound 8 [3]: more inhibitory of virus growth; Potency for inhibiting virus growth among analogs of compound 8 [3]: most potent compound for inhibiting virus growth
CCN1C(=O)c2cccc3c([N+](=O)[O-])ccc(c23)C1=O [Compound 8.6]	0.13	0.25	Inhibition of NS1 protein compared with compound 8 [1]: more inhibitory of NS1 protein; Inhibition of virus growth compared with compound 8 [3]: more inhibitory of virus growth
O=C(O)CCCN1C(=O)c2cccc3cc([N+](=O)[O-])cc(c23)C1=O [Compound 8.9]	0.50	0.50	
O=C(O)CCCCCN1C(=O)c2cccc3c([N+](=O)[O-])ccc(c23)C1=O [Compound 8.10]	0.13	0.19	
O=C(O)CCN1C(=O)c2cccc3cccc(c23)C1=O [Compound 8.16]	1.00	0.50	
